Reference: ChEMBL document CHEMBL1201862, “PubChem BioAssay data set” (2004)
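96-well plates; 48 h exposure; 5 concentrations. Endpoints by linear interpolation between flanking doses. Not reached: highest tested concentration assigned. GI50 is the concentration that inhibits growth by half.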 Activity calls are given as the source filed them. Rule as the data show it: active = GI50 up to about 1.1 µM and inactive = higher. Square brackets hold non-standard residues; d marks the D form. Peptide text beside a SMILES is read from it. * marks the point of attachment. Tyr(3-Br) = N[C@@H](Cc1ccc(O)c(Br)c1)C(=O)O; Boc = CC(C)(C)OC(=O)*

Key:
Experiment in all cases: NCI anticancer screen, dose series, 48 h
HOP-92 = test system: HOP-92
A549 = test system: A549
OVCAR-5 = test system: OVCAR-5
MDA-MB-231 = test system: MDA-MB-231
RXF 393 = test system: RXF 393
786-0 = test system: 786-0
SF-295 = test system: SF-295
NCI-H522 = test system: NCI-H522
NCI-H226 = test system: NCI-H226
SK-OV-3 = test system: SK-OV-3
U-251 = test system: U-251
IGROV-1 = test system: IGROV-1
OVCAR-8 = test system: OVCAR-8
Malme-3M = test system: Malme-3M
KM12 = test system: KM12
Hs-578T = test system: Hs-578T
SK-MEL-28 = test system: SK-MEL-28
K562 = test system: K562
SR = test system: SR
HL-60 = test system: HL-60

| Structure (SMILES) | GI50 (HOP-92) | GI50 (A549) | GI50 (OVCAR-5) | GI50 (MDA-MB-231) | GI50 (RXF 393) | GI50 (786-0) | GI50 (SF-295) | GI50 (NCI-H522) | GI50 (NCI-H226) | GI50 (SK-OV-3) | GI50 (U-251) | GI50 (IGROV-1) | GI50 (OVCAR-8) | GI50 (Malme-3M) | GI50 (KM12) | GI50 (Hs-578T) | GI50 (SK-MEL-28) | GI50 (K562) | GI50 (SR) | GI50 (HL-60) |
| --- | --- | --- | --- | --- | --- | --- | --- | --- | --- | --- | --- | --- | --- | --- | --- | --- | --- | --- | --- | --- |
| CCCC(=O)OCC1(CO)C/C(=C/CC(C(C)C)C(C)C)C(=O)O1 (configuration not stated) | 97.7 µM (inactive) | > 100 µM (inactive) | > 100 µM (inactive) | > 100 µM (inactive) | > 100 µM (inactive) | > 100 µM (inactive) | > 100 µM (inactive) | 38.7 µM (inactive) | > 100 µM (inactive) | > 100 µM (inactive) | > 100 µM (inactive) | > 100 µM (inactive) | > 100 µM (inactive) | 64.4 µM (inactive) | 44.5 µM (inactive) | > 100 µM (inactive) | > 100 µM (inactive) | – | – | – |
| CCOC(=O)c1c[nH]c(C(=O)C=[N+]=[N-])c1C1CCN(CC)C1=S (configuration not stated) | > 100 µM (inactive) | > 100 µM (inactive) | > 100 µM (inactive) | > 100 µM (inactive) | > 100 µM (inactive) | > 100 µM (inactive) | > 100 µM (inactive) | > 100 µM (inactive) | – | > 100 µM (inactive) | > 100 µM (inactive) | > 100 µM (inactive) | > 100 µM (inactive) | > 100 µM (inactive) | > 100 µM (inactive) | > 100 µM (inactive) | > 100 µM (inactive) | > 100 µM (inactive) | – | – |
| CC(C)(C)[Si](C)(C)OCC1OC(n2ccc(=O)[nH]c2=O)C(O[Si](C)(C)C(C)(C)C)/C1=N/O (configuration not stated) | 2.77 µM (inactive) | 3.14 µM (inactive) | 3.9 µM (inactive) | 12.4 µM (inactive) | 8.39 µM (inactive) | 2.64 µM (inactive) | 4.74 µM (inactive) | – | 2.82 µM (inactive) | 6.41 µM (inactive) | 4.25 µM (inactive) | 4.18 µM (inactive) | 3.33 µM (inactive) | – | 3.54 µM (inactive) | – | 3.3 µM (inactive) | 2.77 µM (inactive) | 2.71 µM (inactive) | – |
| O=P(O)(O)C=C=C1CCCCC1 | > 100 µM (inactive) | > 100 µM (inactive) | > 100 µM (inactive) | – | > 100 µM (inactive) | > 100 µM (inactive) | > 100 µM (inactive) | > 100 µM (inactive) | > 100 µM (inactive) | > 100 µM (inactive) | > 100 µM (inactive) | > 100 µM (inactive) | > 100 µM (inactive) | > 100 µM (inactive) | > 100 µM (inactive) | > 100 µM (inactive) | > 100 µM (inactive) | > 100 µM (inactive) | > 100 µM (inactive) | 24.3 µM (inactive) |
| Oc1ccc(Cl)cc1-c1cc(-c2ccccc2)nc(S)n1 | 19.2 µM (inactive) | > 100 µM (inactive) | > 100 µM (inactive) | 30.5 µM (inactive) | 71.3 µM (inactive) | 26.3 µM (inactive) | 28.6 µM (inactive) | > 100 µM (inactive) | > 100 µM (inactive) | 29.5 µM (inactive) | 17.4 µM (inactive) | > 100 µM (inactive) | > 100 µM (inactive) | > 100 µM (inactive) | 92.5 µM (inactive) | 29.2 µM (inactive) | > 100 µM (inactive) | > 100 µM (inactive) | – | > 100 µM (inactive) |
| CCCc1nc(NC#N)nc(C(=O)NC23CC4CC(CC(C4)C2)C3)c1C | > 100 µM (inactive) | > 100 µM (inactive) | > 100 µM (inactive) | – | > 100 µM (inactive) | > 100 µM (inactive) | > 100 µM (inactive) | > 100 µM (inactive) | > 100 µM (inactive) | > 100 µM (inactive) | > 100 µM (inactive) | > 100 µM (inactive) | > 100 µM (inactive) | > 100 µM (inactive) | > 100 µM (inactive) | – | > 100 µM (inactive) | > 100 µM (inactive) | > 100 µM (inactive) | > 100 µM (inactive) |
| C/C(Cc1ccc2c(c1)OCO2)=N\NC(=O)C(C)Sc1nnc(SC(C)C(=O)N/N=C(\C)Cc2ccc3c(c2)OCO3)s1 (configuration not stated) | 61.1 µM (inactive) | > 100 µM (inactive) | > 100 µM (inactive) | 84.7 µM (inactive) | > 100 µM (inactive) | > 100 µM (inactive) | > 100 µM (inactive) | – | > 100 µM (inactive) | > 100 µM (inactive) | > 100 µM (inactive) | > 100 µM (inactive) | > 100 µM (inactive) | > 100 µM (inactive) | > 100 µM (inactive) | > 100 µM (inactive) | > 100 µM (inactive) | 32.1 µM (inactive) | – | > 100 µM (inactive) |
| COc1cc(S(=O)(=O)N/N=C/C=C/c2ccccc2)c(OC)cc1NC(C)=O | 30.3 µM (inactive) | > 100 µM (inactive) | 38.6 µM (inactive) | – | 21.1 µM (inactive) | 91.8 µM (inactive) | > 100 µM (inactive) | 25.2 µM (inactive) | – | > 100 µM (inactive) | – | 17.8 µM (inactive) | 12.2 µM (inactive) | 35.6 µM (inactive) | 42.3 µM (inactive) | 26.4 µM (inactive) | 56.5 µM (inactive) | – | 12.3 µM (inactive) | 33 µM (inactive) |
| COc1ccccc1/C=C1\SC(=S)N(/C=C2\C(=O)Oc3ccccc3C2=O)C1=O | 18.4 µM (inactive) | 27.9 µM (inactive) | 59.8 µM (inactive) | 23 µM (inactive) | – | 34.8 µM (inactive) | – | 26.5 µM (inactive) | 35.3 µM (inactive) | 23 µM (inactive) | 34.3 µM (inactive) | 36.6 µM (inactive) | 28.8 µM (inactive) | 23.2 µM (inactive) | 34.3 µM (inactive) | 33.5 µM (inactive) | – | 36.6 µM (inactive) | – | – |
| COc1nc2ccc(COc3ccc(C(=O)O)cc3)cc2nc1OC | 47.5 µM (inactive) | > 100 µM (inactive) | > 100 µM (inactive) | > 100 µM (inactive) | – | > 100 µM (inactive) | 32.9 µM (inactive) | > 100 µM (inactive) | 78 µM (inactive) | > 100 µM (inactive) | 87.1 µM (inactive) | > 100 µM (inactive) | 36.4 µM (inactive) | > 100 µM (inactive) | > 100 µM (inactive) | – | 66.4 µM (inactive) | 67.1 µM (inactive) | 41.4 µM (inactive) | 53.8 µM (inactive) |
| CC(=O)OC1CCC2C3CCc4c(C)ccc(OS(=O)(=O)c5ccccc5)c4C3CCC12C (configuration not stated) | 6.55 µM (inactive) | – | 86.1 µM (inactive) | 19.3 µM (inactive) | 31.1 µM (inactive) | 6.76 µM (inactive) | 25.5 µM (inactive) | 27.2 µM (inactive) | 14.8 µM (inactive) | 34.2 µM (inactive) | 13.6 µM (inactive) | 38.7 µM (inactive) | – | 50.4 µM (inactive) | – | – | > 100 µM (inactive) | 5.69 µM (inactive) | 6.82 µM (inactive) | 3.84 µM (inactive) |
| Clc1cc(Cl)cc(C2ON=C(c3ccccc3)N2C23CC4CC(CC(C4)C2)C3)c1 (configuration not stated) | 0.643 µM (active) | > 10 µM (inactive) | > 10 µM (inactive) | > 10 µM (inactive) | > 10 µM (inactive) | > 10 µM (inactive) | > 10 µM (inactive) | > 10 µM (inactive) | > 10 µM (inactive) | > 10 µM (inactive) | > 10 µM (inactive) | > 10 µM (inactive) | > 10 µM (inactive) | > 10 µM (inactive) | > 10 µM (inactive) | > 10 µM (inactive) | > 10 µM (inactive) | > 10 µM (inactive) | – | – |
| COC(=O)CCC(NC(=O)C(C)NC(=O)COC1C(O)C(OC(=O)CCNc2c3ccccc3nc3cccc([N+](=O)[O-])c23)OC(OCc2ccccc2)C1NC(C)=O)C(N)=O (configuration not stated) | 4.43 µM (inactive) | > 10 µM (inactive) | > 10 µM (inactive) | 3.48 µM (inactive) | 3.05 µM (inactive) | 3.56 µM (inactive) | > 10 µM (inactive) | – | > 10 µM (inactive) | > 10 µM (inactive) | 9.98 µM (inactive) | > 10 µM (inactive) | 6.5 µM (inactive) | 2.22 µM (inactive) | 5.71 µM (inactive) | > 10 µM (inactive) | – | 1.91 µM (inactive) | – | – |
| O=c1c2nn[nH]c2nc2n1CC(c1ccccc1)S2 (configuration not stated) | – | > 100 µM (inactive) | > 100 µM (inactive) | > 100 µM (inactive) | 29 µM (inactive) | > 100 µM (inactive) | > 100 µM (inactive) | – | > 100 µM (inactive) | > 100 µM (inactive) | > 100 µM (inactive) | > 100 µM (inactive) | > 100 µM (inactive) | > 100 µM (inactive) | > 100 µM (inactive) | – | > 100 µM (inactive) | > 100 µM (inactive) | – | > 100 µM (inactive) |
| CCNc1cc2oc(=O)cc(C(F)(F)F)c2cc1C | 64.4 µM (inactive) | > 100 µM (inactive) | > 100 µM (inactive) | > 100 µM (inactive) | > 100 µM (inactive) | > 100 µM (inactive) | > 100 µM (inactive) | > 100 µM (inactive) | > 100 µM (inactive) | > 100 µM (inactive) | > 100 µM (inactive) | > 100 µM (inactive) | > 100 µM (inactive) | – | > 100 µM (inactive) | > 100 µM (inactive) | > 100 µM (inactive) | > 100 µM (inactive) | – | – |
| COC(=O)[C@H](Cc1ccc(O)c(Br)c1)NC(=O)[C@H](Cc1ccc(O)cc1)NC(=O)OC(C)(C)C (Boc-Tyr-[Tyr(3-Br)]-OMe) | 28.6 µM (inactive) | > 100 µM (inactive) | > 100 µM (inactive) | – | – | 41.3 µM (inactive) | > 100 µM (inactive) | – | > 100 µM (inactive) | > 100 µM (inactive) | – | 37 µM (inactive) | 19.9 µM (inactive) | 24.5 µM (inactive) | 40.6 µM (inactive) | > 100 µM (inactive) | 34.6 µM (inactive) | > 100 µM (inactive) | 44.6 µM (inactive) | 32.4 µM (inactive) |
